Paper PMC3388080 (PLoS ONE, 2012)
Marks after values point to notes of the source that are not given here.

Tested on: male Sprague-Dawley rats
Assay: EEG/EMG/Tcore/LMA telemetry sleep study 1 (SB-334867 vs ZOL)
Type: in vivo, rat
Experimental: All rodent electroencephalograph (EEG) studies were performed at SRI International. Three groups of eight male Sprague-Dawley rats (300±25 g; Charles River, Wilmington, MA) were implanted with chronic recording devices (F40-EET, Data Sciences Inc., St Paul, MN) for continuous recordings of EEG, electromyograph (EMG), core body temperature (Tcore), and LMA via telemetry as previously described. Data recording and scoring were performed as previously reported (see also Supplemental Material and Methods). The EEG and EMG data were scored in 10 sec epochs for waking (W), rapid eye movement sleep (REM), and non-REM sleep (NR). Tcore and LMA (counts per minute) were analyzed as hourly means. Data from the EEG studies are reported in hourly means such that the hourly time ZT1 refers to the hour between time points ZT0 and ZT1.
For each of the three separate studies, a repeated measures counter-balanced design was employed in which each rat received five separate dosings. […] All dosings were administered ip in a volume of 2 ml/kg. A minimum of 3 d elapsed between doses. Dosing occurred during the middle of the rats’ normal active period at the start of ZT19 and was typically completed within 10 min. Animals were continuously recorded for 6 h prior to dosing and for 18 h following dosing.

## Cc1nc2ccc(NC(=O)Nc3ccnc4cccnc34)cc2o1.Cl [SB-334867, 1-(2-methylbenzoxazol-6-yl)-3-[1], [5]naphthyridin-4-yl-urea hydrochloride]
3 and 30 mg/kg ip, first 4 and 6 h periods
  cumulative NR (in words): increased cumulative NR
6 h Average, 3 mg/kg ip
  NR bout duration: 1.17 ± 0.12 ^+
  REM bout duration: 1.28 ± 0.14^+
  W bout duration: 4.29 ± 0.34
6 h Average, 10 mg/kg ip
  NR bout duration: 1.00 ±0.12 ^+
  REM bout duration: 1.24 ±0.14^+
  W bout duration: 4.19 ±0.30
6 h Average, 30 mg/kg ip
  NR bout duration: 1.18 ± 0.12 ^+
  REM bout duration: 1.05 ± 0.08^+
  W bout duration: 3.87 ± 0.21
6 h Total, 3 mg/kg ip
  Number of NR bouts: 72.88 ± 5.37
  Number of REM bouts: 15.25 ±2.54
  Number of W bouts: 61.5 ±5.45
6 h Total, 10 mg/kg ip
  Number of NR bouts: 76.13 ± 4.99
  Number of REM bouts: 14.38 ± 1.55
  Number of W bouts: 64.13 ± 3.89
6 h Total, 30 mg/kg ip
  Number of NR bouts: 71.38 ± 2.20
  Number of REM bouts: 19.25 ± 1.50*^+
  Number of W bouts: 65.38 ± 3.54
ZT3, 10 and 30 mg/kg ip, vs vehicle
  NR during the subsequent light period (in words): NR decreased
ZT19, 3 mg/kg ip
  NR bout duration: 1.02 ± 0.14^+
  Number of NR bouts: 4.63 ± 2.07
  Number of REM bouts: 0.50 ± 0.33
  Number of W bouts: 2.88 ± 0.93
  REM bout duration: 1.21 ± 0.38^+
  W bout duration: 31.21 ± 8.79
ZT19, 10 mg/kg ip
  NR bout duration: 1.56 ± 0.59
  Number of NR bouts: 7.88 ± 2.52
  Number of REM bouts: 1.00 ± .050
  Number of W bouts: 6.25 ± 1.78
  REM bout duration: 0.95 ± 0.09
  W bout duration: 16.83 ± 6.40
ZT19, 30 mg/kg ip
  NR bout duration: 1.29 ± 0.24
  Number of NR bouts: 7.75 ± 1.93
  Number of REM bouts: 1.50 ± 0.46
  Number of W bouts: 5.75 ± 1.10
  REM bout duration: 1.04 ± 0.27
  W bout duration: 13.73 ± 6.71
ZT20, 3 mg/kg ip
  NR bout duration: 1.29 ± 0.15^+
  Number of NR bouts: 16.25 ± 2.43
  Number of REM bouts: 4.38 ± 1.21
  Number of W bouts: 12.25 ± 2.06
  REM bout duration: 1.34 ± 0.16^+
  W bout duration: 3.39 ± 0.78
ZT20, 10 mg/kg ip
  NR bout duration: 1.14 ± 0.12^+
  Number of NR bouts: 17.50 ± 3.34
  Number of REM bouts: 4.38 ± 1.19
  Number of W bouts: 13.88 ± 2.94
  REM bout duration: 1.16 ± 0.14^+
  W bout duration: 9.58 ± 7.23
ZT20, 30 mg/kg ip
  NR bout duration: 1.41 ± 0.26^+
  Number of NR bouts: 13.75 ± 1.79
  Number of REM bouts: 3.88 ± 0.99
  Number of W bouts: 12.63 ± 1.53
  REM bout duration: 1.27 ± 0.14^+
  W bout duration: 3.30 ± 0.88
ZT21, 3 mg/kg ip
  NR bout duration: 1.45 ± 0.28
  Number of NR bouts: 20.75 ± 2.40
  Number of REM bouts: 5.63 ± 0.65
  Number of W bouts: 16.38 ± 1.96
  REM bout duration: 1.28 ± 0.18
  W bout duration: 1.44 ± 0.20
ZT21, 10 mg/kg ip
  NR bout duration: 1.13 ± 0.25
  Number of NR bouts: 18.13 ± 2.03
  Number of REM bouts: 3.75 ± 0.82
